Measurements taken from US20090012156A1, “Composition comprising polyphenol” (Conopco, Inc. d/b/a Unilever, priority 2007, published 2009).

Tested on: 2nd order mesenteric artery side branches of Spontaneously Hypertensive Rats (SHR)
Assay: Reactivity of isolated arteries: dilator effect during contraction induced by 40 mmol/L K+
Set-up: species or system rat
Procedure: Segments of 2nd order mesenteric artery side branches were isolated from 14 weeks old male Spontaneously Hypertensive Rats (SHR). Two stainless-steel wires (diameter 40 μm) were inserted in the lumen of the arterial segments, which were then mounted in organ chambers between an isometric force transducer and a displacement device (Danish Myotechnology by J. P. Trading, Denmark). The organ chambers were filled with Krebs-Ringer bicarbonate solution which was maintained at 37° C. and continuously aerated with 95% O2 and 5% CO2. Before the actual experiments started, arterial segments were stretched to their individual optimal lumen diameter for mechanical performance, i.e. the diameter at which maximal contractile responses to noradrenaline (10 μmol/L) were obtained. In each experiment four second order mesenteric resistance arterial segments from one animal were mounted in individual organ chambers and studied in parallel. […]
For the analysis of the acute effects of the mixtures on K+-induced contraction, increasing concentrations of the mixtures (0.1-100 umol/L) were administered on top of the stable contractions and were left in contact with the arterial segments for 5-7 min to make sure that either no effect or a stable effect was reached. […] In this way, the effects of different exposure times to the mixtures (7, 30 and 90 min) on K+-induced contraction, could be evaluated. […]
Active wall tension (AWT) was calculated by subtracting the resting wall tension.
All contractile responses (AWT in the presence of stimuli, solvent and mixes of ingredients) were next expressed as a percentage of the contractile response (AWT) to 10 uM noradrenaline at the end of the normalisation period, i.e. before exposure of the arterial segments to solvent or mixes of ingredients.
Effects of increasing concentrations of the solvent and of the mixes (0.1 to 100 umol/L) during contractile responses to 40 mmol/L K+, were calculated as % change of the level of pre-contraction. […]

COc1cc(-c2oc3cc(O)cc(O)c3c(=O)c2O)ccc1O [isorhamnetin, 3′methoxy-3,4,5,7-tetrahydroxyflavone]
EC50 (Rattus norvegicus, isolated SHR mesenteric resistance arteries pre-contracted with 40 mmol/L K+, effect worked out by comparing mixtures (Plackett-Burman design), corrected for solvent, read-out: EC50 of dilation of the arteries): 3.1 µM | maximum dilatation (at 100 micromolar of isorhamnetin, isolated SHR mesenteric arteries pre-contracted with 40 mmol/L K+): 94% | influence on the dilation of the arteries (at a low concentration, isolated SHR mesenteric arteries, K+-induced contraction): significant influence on the dilation of the arteries
